Assay results from PubChem BioAssay (NCI).
Several values for one entry are separate records, joined by “and”; a condition that tells them apart may be missing. Equal entries are not always repeated.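 Method: 48-hour compound exposure of cells in 96-well plates, five concentrations, linear interpolation of endpoints. GI50: concentration for 50% inhibition of growth. TGI: total growth inhibition.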 Where a SMILES comes first, the peptide text is derived from it. [ ]: non-standard residue; d: D form. The star is where a group is joined. Phe(4-NO2) = N[CH](Cc1ccc([N+](=O)[O-])cc1)C(=O)O; Boc = CC(C)(C)OC(=O)*; OtBu = CC(C)(C)O*

Legend:
Experiment in all cases: NCI tumour cell line growth inhibition, 48 h
SNB-75 CNS = tested on: SNB-75 CNS
SF-295 CNS = tested on: SF-295 CNS
UO-31 renal = tested on: UO-31 renal
HOP-62 NSCLC = tested on: HOP-62 NSCLC
RXF 393 renal = tested on: RXF 393 renal
HCT-116 colon = tested on: HCT-116 colon
HL-60(TB) leukemia = tested on: HL-60(TB) leukemia
MOLT-4 leukemia = tested on: MOLT-4 leukemia
M14 melanoma = tested on: M14 melanoma
SK-OV-3 ovarian = tested on: SK-OV-3 ovarian

Structure (SMILES) | TGI (SNB-75 CNS) | TGI (SF-295 CNS) | TGI (UO-31 renal) | TGI (HOP-62 NSCLC) | TGI (RXF 393 renal) | TGI (HCT-116 colon) | TGI (HL-60(TB) leukemia) | TGI (MOLT-4 leukemia) | TGI (M14 melanoma) | TGI (SK-OV-3 ovarian) | GI50 (SF-295 CNS) | GI50 (RXF 393 renal) | GI50 (HL-60(TB) leukemia) [µM] | GI50 (MOLT-4 leukemia) [µM] | GI50 (M14 melanoma)
Cc1nn(C(=O)c2ccccc2O)c2c1C(c1ccc(O)cc1)SC(N)=N2 (stereo not given) | 8.56 µM | > 10 µM | > 10 µM | > 10 µM | > 10 µM | > 3.32 µM | > 4.33 µM | > 10 µM | > 10 µM | > 10 µM | – | – | – | – | –
BrCC[P+](c1ccccc1)(c1ccccc1)c1ccccc1 | 9.86 µM | > 100 µM | 22.8 µM | 20.2 µM | 8.02 µM | 8.38 µM | 5.33 µM | 24.3 µM | 18 µM | 66.4 µM | – | – | – | – | –
COc1cc(O)c2c(c1)C(O)C(O)CC1OC1C(=O)/C=C/CC(C)OC2=O (stereo not given) | 24.6 µM | 46.6 µM | 17.1 µM | 44.3 µM | 5.6 µM | 12.2 µM | > 23.4 µM | 17.2 µM | 11.8 µM | > 64.9 µM | – | – | – | – | –
O=C(O)c1ccccc1-c1ccccc1C(=O)c1ccccc1 | > 100 µM | > 100 µM | > 100 µM | > 100 µM | > 100 µM | > 100 µM | > 100 µM | > 100 µM | > 100 µM | > 100 µM | – | – | – | – | –
COc1ccc(C[C@H]2COC(=O)[C@@H]2Cc2cc(OC)c(OC)c(OC)c2)cc1OC | > 100 µM | > 100 µM | > 100 µM | > 100 µM | > 100 µM | > 100 µM | > 100 µM | > 100 µM | > 100 µM | > 100 µM | – | – | – | – | –
NC(CO)c1ccccc1 (stereo not given) | > 100 µM | > 100 µM | > 100 µM | > 100 µM | > 100 µM | > 100 µM | > 100 µM | > 100 µM | > 100 µM | > 100 µM | – | – | – | – | –
CN(C)CCNc1nc2ccccc2c2c1C(=O)c1ccccc1-2 | 1.68 µM | 3.31 µM | 3.17 µM | 3.72 µM | 1.13 µM | 1.38 µM | 0.812 µM | 0.098 µM | 1.67 µM | 13.1 µM | – | – | – | – | –
CC(C)[Si]1(C(C)C)OCC2OC(n3cnc4c(N)ncnc43)C(N)C2O[Si](C(C)C)(C(C)C)O1 (stereo not given) | 25.1 µM | 21.5 µM | 27.6 µM | > 49.5 µM | 27.1 µM | 16.9 µM | > 28.2 µM | 7.84 µM | 26.3 µM | > 53.7 µM | – | – | – | – | –
COc1cc(/C=C2\C[C@H]3[C@@H]4CC=C5C[C@@H](N6CCCC6)CC[C@]5(C)[C@H]4CC[C@]3(C)[C@H]2OC(C)=O)cc(OC)c1OC | 29.4 µM | 26.5 µM | 30 µM | 29.3 µM | 27 µM | 30.5 µM | 65.7 µM | 22.5 µM | 31.9 µM | 29.1 µM | – | – | – | – | –
CN1C/C(=C\c2ccccc2[N+](=O)[O-])C(=O)/C(=C/c2ccccc2[N+](=O)[O-])C1 | 6.77 µM and 7.57 µM | 13.7 µM and 7 µM | 1.28 µM and 1.12 µM | 7.8 µM and 8.77 µM | 1.13 µM and 0.485 µM | 0.546 µM and 0.415 µM | 0.632 µM and 0.41 µM | 1.02 µM and 0.572 µM | 4.17 µM and 0.876 µM | 12.8 µM and 10.8 µM | 5.62 µM and 2.46 µM | 0.477 µM and 0.191 µM | 0.239 | 0.308 | 1.76 µM and 0.298 µM
CCOP(=O)(OCC)C(F)(F)CC1CCCCC1 | > 10 µM | > 10 µM | > 10 µM | > 10 µM | > 10 µM | > 10 µM | > 10 µM | > 10 µM | > 10 µM | > 10 µM | – | – | – | – | –
COc1ccc(C=O)cc1Oc1ccc(C[C@H]2c3c(cc(OC)c4c3Oc3cc5c(cc3O4)CCN(C)C5=O)CCN2C)cc1 | 14 µM | 16.3 µM | 14.6 µM | 15.1 µM | 10.8 µM | 15 µM | 17.5 µM | 21.7 µM | 19.1 µM | 17.5 µM | – | – | – | – | –
CN1C(=O)[C@@]2(C=CC3(CC2)OCCO3)c2ccccc21 | 49.5 µM | > 50 µM | > 50 µM | > 50 µM | > 50 µM | > 50 µM | > 50 µM | > 50 µM | > 50 µM | > 50 µM | – | – | – | – | –
COC1(OC)N=C(N)C2(C#N)/C(=N/N(C)C)CC(C)C12C#N (stereo not given) | > 100 µM | > 100 µM | > 100 µM | > 100 µM | > 100 µM | > 100 µM | > 100 µM | > 100 µM | > 100 µM | > 100 µM | – | – | – | – | –
COc1ccc(S(=O)(=O)Nc2ccc(-c3csc(N4C(=O)/C(=C/C=C\c5ccccc5)N=C4c4ccccc4)n3)cc2)cc1Cl | > 100 µM | > 100 µM | 58.6 µM | > 100 µM | 62.5 µM | 68.5 µM | 59.9 µM | > 100 µM | 83.6 µM | > 100 µM | – | – | – | – | –
Clc1ncc(C(Cl)(Cl)Cl)nc1-c1ccccc1 | 6.24 µM | 13.5 µM | 3.34 µM | 6.08 µM | 3.3 µM | 3.52 µM | 6.41 µM | 28.9 µM | 5.88 µM | 24.3 µM | – | – | – | – | –
CN(Cc1nc2c(N)nc(N)nc2nc1N)c1ccc(C(=O)NC(CCC(=O)O)C(=O)O)cc1 (stereo not given) | > 100 µM | > 100 µM | > 100 µM | > 100 µM | > 100 µM | > 100 µM | > 100 µM | > 100 µM | > 100 µM | > 100 µM | – | – | – | – | –
COC(=O)C(Cc1ccc([N+](=O)[O-])cc1)NC(=O)C(CC(=O)OC(C)(C)C)NC(=O)OC(C)(C)C (stereo not given) (Boc-Asp(OtBu)-[Phe(4-NO2)]-OMe; configuration not given here) | > 100 µM | > 100 µM | 29.6 µM | > 100 µM | > 100 µM | > 100 µM | > 100 µM | > 100 µM | > 100 µM | > 100 µM | – | – | – | – | –
CN(C)CCn1c(=O)c2ccc(NCCNCCO)c3c(=O)c4cc(O)ccc4n(c1=O)c23 | 6.2 µM | 21.1 µM | 28.2 µM | 4.16 µM | 3.73 µM | 3.15 µM | 4.61 µM | 1.17 µM | 13.6 µM | 46.7 µM | – | – | – | – | –
COc1ccc(-c2c(C(C)=O)c(C)n(C3OC(CO)C(O)C(O)C3O)c(=S)c2C#N)cc1 (stereo not given) | > 100 µM | > 100 µM | > 100 µM | > 100 µM | > 100 µM | > 100 µM | > 100 µM | > 100 µM | > 100 µM | > 100 µM | – | – | – | – | –
CC(=O)Oc1ccc2c(c1)c1c(OC(C)=O)c3ccccc3c(OC(C)=O)c1n2Cc1cccc(C)c1 | 41.6 µM | 72.3 µM | > 100 µM | 67.3 µM | > 100 µM | > 100 µM | > 100 µM | > 100 µM | > 100 µM | 53.5 µM | – | – | – | – | –
CCN(CC)c1ccc(C(=C2C=CC(=[N+](CC)CC)C=C2)c2ccccc2)cc1 | 1.25 µM | 0.0664 µM | 0.185 µM | 0.491 µM | 0.0989 µM | 0.127 µM | 0.0318 µM | 0.0383 µM | 0.641 µM | 0.0854 µM | – | – | – | – | –
COc1cc(C2S/C(=C/c3ccccc3)C(=O)N2c2ccc(Cl)cc2)cc(OC)c1OC (stereo not given) | > 79.9 µM | > 100 µM | > 100 µM | > 100 µM | > 100 µM | > 100 µM | 85 µM | > 81.5 µM | > 46 µM | > 100 µM | – | – | – | – | –
O=C(O)c1ccc(Nc2cnc3ccc(C(F)(F)F)cc3n2)cc1 | 37.2 µM | 45.3 µM | 27.5 µM | 38.9 µM | 35.3 µM | 37.6 µM | 20.7 µM | 44.5 µM | > 100 µM | > 100 µM | – | – | – | – | –
CC(=O)c1nccc2c1c(C)nc1ccccc12 | > 100 µM | > 100 µM | > 100 µM | > 100 µM | > 100 µM | > 100 µM | > 100 µM | > 100 µM | > 100 µM | > 100 µM | – | – | – | – | –
OCc1ccccc1OC1OC(CO)C(O)C(O)C1O (stereo not given) | > 100 µM | > 100 µM | > 100 µM | > 100 µM | > 100 µM | > 100 µM | > 100 µM | > 100 µM | > 100 µM | > 100 µM | – | – | – | – | –
O=C(O)CNC(=O)c1cccc2c(=O)c3ccccc3[nH]c12 | > 100 µM | > 100 µM | > 100 µM | > 100 µM | > 100 µM | > 100 µM | > 100 µM | > 100 µM | > 100 µM | > 100 µM | – | – | – | – | –
